Measurements taken from US6476008B1, “Use of diphosphonic acids or the physiologically acceptable salts or esters thereof in the preventive treatment of after-effects resulting from enlargement or replacement of the bladder” (Roche Diagnostics GmbH, priority 1997, dated 2002).

Columns and labels:
[1] = test system: rats with chronic kidney insufficiency and augmentation using gastrointestinal segments; test: Chronic kidney insufficiency plus augmentation plasty, bone mass; format: in vivo, rat; conditions: rats with CNI (5/6 nephrectomy) and augmentation plasty, ibandronate administration
From the text: In order to increase the clinical relevance of the results, the test procedure of Example 2 was repeated on rats with chronic kidney insufficiency. This test arrangement is based on a frequent situation among human beings in which a bladder previously damaged by an existing disturbance in urine transport (reflux or obstruction) leads to kidney insufficiency as a secondary result. It is known that kidney insufficiency in itself results in a disturbance in bone mineralisation (renal osteopathy), so that the need for a bladder extension plasty using segments of intestine further increases the risk of disturbed mineralisation. Kidney insufficiency was induced by 5/6 nephrectomy (compare Example 2). The other test procedure was as in Example 1.

[2] = test system: female Sprague-Dawley rats augmented with excluded sigma; test: Prevention of osteopenia after bladder augmentation plasty, bone density by DEXA; format: in vivo, rat; conditions: daily s.c. ibandronic acid up to 20 μg P/kg, 4 months, monthly DEXA
From the text: Preventive effect of diphosphonates before the occurrence of osteopenia after augmentation plasty. Groups of 12 female Sprague-Dawley rats (6-8 week old, about […] body weight) were provided with stomach and ileum augmentation plasties and 12 animals were dummy-operated. At the same time, 24 animals were augmented with excluded sigma and divided at random into two groups, one group daily receiving a subcutaneous application of 0.9% NaCl (control) and the other group a daily subcutaneous application of ibandronic acid in the form of an aqueous solution in a dose up to 20 μg P/kg. The operative configuration of the augmentation plasties was after Lauvetz et al (J. Urol. 154: 899-902, 1995). The test period was 4 months, corresponding to about 4 years of human life (E. Grimm, Amer. J. Dig Dis. 7: 17-20, 1962).

CCCCCN(C)CCC(O)(P(=O)(O)O)P(=O)(O)O [ibandronate, 1-hydroxy-3-(N-methyl-N-pentyl)aminopropylidene-1,1-diphosphonic acid]
reduction in bone mass [1]: reduction in bone mass was prevented | reduction in bone mass (DEXA bone density, lumbar vertebrae) [2]: no reduction in bone mass
